According to ChEMBL document CHEMBL2429716, “Molecular modeling studies of substituted 3,4-dihydroxychalcone derivatives as 5-lipoxygenase and cyclooxygenase inhibitors” (Med Chem Res, 2013):
pIC50: −log10 of the molar value.

Legend:
[1] = target: T1, Cyclooxygenase (Rattus norvegicus, UniProt P35355+Q63921); assay: Inhibition of cyclooxygenase in rat RBL1 cells; format: cell-based; settings: rbl-1
T1 sequence (P35355 whole entry): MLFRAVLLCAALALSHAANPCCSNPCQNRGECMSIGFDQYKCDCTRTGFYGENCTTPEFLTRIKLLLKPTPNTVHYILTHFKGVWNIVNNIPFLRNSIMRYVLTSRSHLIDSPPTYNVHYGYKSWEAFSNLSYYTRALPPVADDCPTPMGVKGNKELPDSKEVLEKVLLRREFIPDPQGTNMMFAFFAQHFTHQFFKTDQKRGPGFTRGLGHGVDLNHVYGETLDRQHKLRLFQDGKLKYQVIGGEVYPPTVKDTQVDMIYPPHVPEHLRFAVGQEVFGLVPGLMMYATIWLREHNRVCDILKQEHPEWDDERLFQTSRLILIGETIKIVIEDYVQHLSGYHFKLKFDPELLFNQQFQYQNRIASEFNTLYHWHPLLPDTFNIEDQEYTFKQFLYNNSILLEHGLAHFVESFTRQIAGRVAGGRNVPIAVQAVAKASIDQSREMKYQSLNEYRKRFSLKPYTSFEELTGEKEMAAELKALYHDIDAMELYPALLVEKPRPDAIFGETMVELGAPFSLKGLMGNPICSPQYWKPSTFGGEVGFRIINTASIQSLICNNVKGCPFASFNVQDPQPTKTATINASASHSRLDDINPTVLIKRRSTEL
T1 sequence (Q63921 whole entry): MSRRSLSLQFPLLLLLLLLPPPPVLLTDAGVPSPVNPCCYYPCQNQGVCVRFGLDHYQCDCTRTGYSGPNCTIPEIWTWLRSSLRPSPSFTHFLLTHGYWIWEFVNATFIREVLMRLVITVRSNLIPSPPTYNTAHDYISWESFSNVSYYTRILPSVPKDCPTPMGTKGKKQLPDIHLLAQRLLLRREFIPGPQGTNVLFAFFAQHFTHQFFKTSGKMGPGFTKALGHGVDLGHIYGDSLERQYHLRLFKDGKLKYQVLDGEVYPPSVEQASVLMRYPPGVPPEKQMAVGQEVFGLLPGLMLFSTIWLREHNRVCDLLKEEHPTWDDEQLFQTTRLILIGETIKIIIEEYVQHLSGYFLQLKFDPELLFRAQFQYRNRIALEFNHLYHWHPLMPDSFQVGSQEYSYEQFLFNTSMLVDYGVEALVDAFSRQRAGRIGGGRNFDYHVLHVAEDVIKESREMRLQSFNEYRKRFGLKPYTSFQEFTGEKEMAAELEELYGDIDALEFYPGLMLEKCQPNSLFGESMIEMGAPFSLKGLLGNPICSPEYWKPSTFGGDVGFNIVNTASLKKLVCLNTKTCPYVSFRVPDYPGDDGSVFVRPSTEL

[2] = target: T2, Polyunsaturated fatty acid 5-lipoxygenase (Rattus norvegicus, UniProt P12527); assay: Inhibition of 5-lipoxygenase in rat RBL1 cells; format: cell-based, RBL-1
T2 sequence (P12527 whole entry): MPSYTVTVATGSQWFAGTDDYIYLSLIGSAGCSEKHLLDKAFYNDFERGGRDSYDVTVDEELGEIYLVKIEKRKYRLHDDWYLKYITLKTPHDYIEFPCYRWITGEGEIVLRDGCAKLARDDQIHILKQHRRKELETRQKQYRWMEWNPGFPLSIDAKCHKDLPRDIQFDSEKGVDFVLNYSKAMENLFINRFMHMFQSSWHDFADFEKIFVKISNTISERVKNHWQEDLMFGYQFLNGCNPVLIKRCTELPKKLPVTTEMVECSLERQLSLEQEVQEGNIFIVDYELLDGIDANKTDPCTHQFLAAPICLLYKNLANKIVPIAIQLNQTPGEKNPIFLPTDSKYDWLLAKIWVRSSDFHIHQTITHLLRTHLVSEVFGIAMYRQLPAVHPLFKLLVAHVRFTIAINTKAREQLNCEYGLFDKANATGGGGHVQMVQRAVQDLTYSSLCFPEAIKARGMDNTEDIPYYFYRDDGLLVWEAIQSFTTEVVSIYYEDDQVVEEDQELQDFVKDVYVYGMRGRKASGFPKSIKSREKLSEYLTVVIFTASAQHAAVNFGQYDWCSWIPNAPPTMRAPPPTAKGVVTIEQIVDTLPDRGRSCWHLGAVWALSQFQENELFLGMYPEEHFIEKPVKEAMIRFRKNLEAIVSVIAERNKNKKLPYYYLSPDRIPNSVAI

| SMILES | IC50 [1] | pIC50 [2] |
| --- | --- | --- |
| COc1ccccc1/C=C/C(=O)c1ccccc1 | 27 µM | 4.57 |
| O=C(/C=C/c1ccc([N+](=O)[O-])cc1)c1ccccc1 | 23 µM | 4.64 |
| COc1cc(/C=C/C(=O)c2ccc(Cl)cc2)ccc1O | 8.9 µM |  |
| O=C(/C=C/c1ccc(O)c(O)c1)c1cccc(O)c1 | 0.0042 µM |  |
| O=C(/C=C/c1ccc(O)c(O)c1)c1ccccc1 | 0.043 µM |  |
| COc1ccc(/C=C/C(=O)c2ccccc2)c(OC)c1 | 10 µM | 5.00 |
| COc1ccc(OC)c(C(=O)/C=C/c2ccccc2)c1 | 7.8 µM | 5.11 |
| Cc1ccc(O)c(C(=O)/C=C/c2ccccc2)c1 | 39 µM | 4.41 |
| COc1ccc(C)cc1C(=O)/C=C/c1ccccc1 | 24 µM | 4.62 |
| COc1ccc(OC(C)C)cc1C(=O)/C=C/c1ccccc1 | 14 µM | 4.85 |
| CCOc1ccc(OC)cc1C(=O)/C=C/c1ccccc1 | 27 µM | 4.57 |
| CCOc1ccc(OCC)c(C(=O)/C=C/c2ccccc2)c1 | 2.4 µM | 5.62 |
| Cc1ccc(C)c(C(=O)/C=C/c2ccccc2)c1 | 16 µM | 4.80 |
| CCCCOc1ccc(O)c(C(=O)/C=C/c2ccccc2)c1 | 1 µM | 6.00 |
| Cc1ccc(/C=C/C(=O)c2ccccc2)c(C)c1 | 17 µM | 4.77 |
| COc1ccc(OC)c(/C=C/C(=O)c2ccccc2)c1 | 7.8 µM | 5.11 |

| SMILES | IC50 [1] | pIC50 [2] |
| --- | --- | --- |
| COc1ccc(O)c(/C=C/C(=O)c2ccccc2)c1 | 41 µM | 4.39 |
| CC(C)Oc1ccc(/C=C/C(=O)c2ccccc2)cc1 | 41 µM | 4.39 |
| CN(C)c1cccc(/C=C/C(=O)c2ccccc2)c1 | 9.8 µM | 5.01 |
| Cc1cccc(/C=C/C(=O)c2ccccc2)c1 | 27 µM | 4.57 |
| COc1cccc(OC)c1/C=C/C(=O)c1ccccc1 | 370 µM | 3.43 |
| COc1ccc(/C=C/C(=O)c2ccccc2)cc1OC | 18 µM | 4.74 |
| O=C(/C=C/c1ccc(O)c(O)c1)c1ccccc1O | 0.023 µM |  |
| O=C(/C=C/c1ccccc1Cl)c1ccccc1 | 92 µM | 4.04 |
| Cc1cc(C)c(/C=C/C(=O)c2ccccc2)c(C)c1 | 400 µM | 3.40 |
| COc1cc(/C=C/C(=O)c2ccccc2)cc(OC)c1OC | 16 µM | 4.80 |
| O=C(/C=C/c1ccc(O)c(O)c1)c1c(O)cc(O)cc1O [3,4,2',4',6'-PENTAHYDROXYCHALCONE] | 0.14 µM |  |
| O=C(/C=C/c1ccc(Cl)cc1)c1ccccc1 [4-CHLORO CHALCONE] | 85 µM | 4.07 |
| COc1ccc(/C=C/C(=O)c2ccccc2)cc1 [4-METHOXY CHALCONE] | 20 µM | 4.70 |
| O=C(/C=C/c1ccccc1)c1ccccc1 [CHALCONE] | 43 µM | 4.37 |
| O=C(/C=C/c1ccc(O)cc1)c1ccc(O)cc1O [ISOLIQUIRITIGENIN] | 35 µM |  |

Other lines, results leading:

| IC50 [1] | pIC50 [2] | SMILES |
| --- | --- | --- |
| 41 µM | 4.39 | COc1ccc(O)c(C(=O)/C=C/c2ccccc2)c1 |
| 64 µM | 4.19 | O=C(/C=C/c1ccccc1)c1cc(O)ccc1O |
| 12 µM |  | COc1ccc(C(=O)/C=C/c2ccc(O)c(OC)c2)cc1 |
| 58 µM | 4.24 | O=C(/C=C/c1ccccc1C(F)(F)F)c1ccccc1 |
| 38 µM | 4.42 | CCOc1ccc(OC)c(C(=O)/C=C/c2ccccc2)c1 |
| 5.3 µM | 5.28 | CCOc1ccc(O)c(C(=O)/C=C/c2ccccc2)c1 |
| 4 µM | 5.40 | CC(C)c1ccc(O)c(C(=O)/C=C/c2ccccc2)c1 |
| 11 µM | 4.96 | CC(C)Oc1ccc(O)c(C(=O)/C=C/c2ccccc2)c1 |
| 6.5 µM | 5.19 | COc1cccc(/C=C/C(=O)c2ccccc2)c1 |
| 76 µM | 4.12 | Cc1ccc(/C=C/C(=O)c2ccccc2)cc1 |
| 4.7 µM | 5.33 | CN(C)c1ccc(/C=C/C(=O)c2ccccc2)cc1 |
| 9 µM | 5.05 | COc1cc(/C=C/C(=O)c2ccccc2)ccc1O |
| 15 µM | 4.82 | COc1ccc(/C=C/C(=O)c2ccccc2)c(O)c1 |
| 0.0046 µM |  | O=C(/C=C/c1ccc(O)c(O)c1)c1ccc(O)cc1O [BUTEIN] |
